BindingDB's records for patent US20250270173 (Gilgamesh Pharmaceuticals, 2025)
pKi: −log10 of the molar value.

Biological target: 5-hydroxytryptamine receptor 2A (Homo sapiens, UniProt P28223)
Assay: 5-HT2A Receptor Binding Assay

Chain of 5-hydroxytryptamine receptor 2A (P28223 whole entry): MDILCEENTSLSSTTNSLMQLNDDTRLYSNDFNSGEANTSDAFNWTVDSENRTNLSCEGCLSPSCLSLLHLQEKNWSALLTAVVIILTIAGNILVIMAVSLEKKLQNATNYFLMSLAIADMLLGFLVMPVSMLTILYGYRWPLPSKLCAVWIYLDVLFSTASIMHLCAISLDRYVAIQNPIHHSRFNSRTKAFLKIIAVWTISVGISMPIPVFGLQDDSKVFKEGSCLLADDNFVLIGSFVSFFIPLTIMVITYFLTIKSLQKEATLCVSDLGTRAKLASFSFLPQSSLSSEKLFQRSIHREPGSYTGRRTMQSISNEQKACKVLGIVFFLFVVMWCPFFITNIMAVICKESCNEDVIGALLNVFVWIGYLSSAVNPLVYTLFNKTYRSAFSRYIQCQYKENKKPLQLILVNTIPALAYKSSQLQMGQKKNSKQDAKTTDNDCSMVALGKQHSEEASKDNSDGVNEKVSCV

Row | Compound | pKi
1 | COc1cc(C)c(OC)nc1CCN [US20250270173, Compound 8] | 5.95
2 | COc1cc(C2CC2)c(OC)nc1CCN [US20250270173, Compound 26] | 6.82
3 | COc1cc(Br)c(OC)nc1CC(C)N (configuration not stated) [US20250270173, Compound 6] | 6.77
4 | COc1cc(Br)c(OC)nc1CCN [US20250270173, Compound 9] | 7.00
5 | CCSc1cc(OC)c(CC(N)CC)nc1OC (configuration not stated) [US20250270173, Compound 24] | 6.19
6 | CCSc1cc(OC)c(CCN)nc1OC [US20250270173, Compound 22] | 7.08
7 | CCCCCc1nc(OC)c(CC(N)CC)nc1OC (configuration not stated) [US20250270173, Compound 12] | 6.16
8 | CCSc1cc(OC)c(CC(C)N)nc1OC (configuration not stated) [US20250270173, Compound 23] | 6.46
9 | CCCCCc1nc(OC)c(CC(N)CC)cc1OC (configuration not stated) [US20250270173, Compound 11] | 6.56
10 | COc1cc(C)c(OC)nc1CC(C)N (configuration not stated) [US20250270173, Compound 5] | 5.93
11 | CCCc1cc(OC)c(CC(N)CC)nc1OC (configuration not stated) [US20250270173, Compound 37] | 6.97
12 | CCCCCCc1cc(OC)c(CCN)nc1OC [US20250270173, Compound 29] | 9.04
